Where no end group is shown, it is not given here. [ ]: non-standard residue; d: D form. pY = N[C@@H](Cc1ccc(OP(=O)(O)O)cc1)C(=O)O
Experiments:
[1] = system: TrkB-mediated activation of PLCγ1; test: BDNF-mediated activation of PLCγ1 (p-PLCγ1 Y783 western blot) in cultured cortical neurons; type: cell-based, rat; settings: for BDNF-mediated increase of p-PLC γ-1/PLC γ-1 ratio (quantified, FIG. 10): 10-120 min pretreatment, 120 min p<0.05; for inhibition of BDNF-mediated increased p-PLCγ1 783: preincubation 60-120 min, BDNF 10 ng/ml
[2] = system: kainic acid-induced status epilepticus; test: Status epilepticus induced by kainic acid infusion into amygdala, peptide given i.v. before KA; type: in vivo, mouse
Description: FIG. 15: Continuous limbic and tonic-clonic seizures (status epilepticus) were induced in awake, adult male WT C57BL/6 mice weighing 20-25 g by unilateral stereotaxic microinjection of 0.3 μg kainic acid (KA) in a volume of 0.2 μl PBS, pH 7.4, into the right basolateral amygdala nucleus. Seven to nine days prior to KA infusion, a guide cannula was placed in the right amygdala under pentobarbital anesthesia using the following stereotactic coordinates relative to bregma: AP, −0.94 mm; ML, −2.85 mm; and DV, −3.75 mm (AP, anterior-posterior; ML, medio-lateral; DV, dorso-ventral); additionally, a bipolar EEG recording electrode was implanted into contralateral dorsal hippocampus: AP, −2.00 mm; ML, 1.60 mm; and DV, −1.53 mm. Phospho-Tat-pTrkBY816 or Scr-phospho-Tat-pTrkBY816 was injected intravenously through tail vein before amygdala KA infusion. EEG and mice behavior were recorded by EEG recording device and video camera respectively for 45 min following infusion of KA. Design of the time course and dose response experiments are presented in top and bottom panels respectively.
As described previously, microinjection of kainic acid into the right amygdala of awake, adult mice reliably induces continuous limbic and clonic motor seizures accompanied by electrographic evidence of seizure activity as detected by EEG recording electrode in the contralateral hippocampus. Status epilepticus is terminated by intraperitoneal administration of diazepam 45 minutes following infusion of kainic acid.
We asked whether intravenous infusion of Tat-pTrkBY816 via tail vein inhibited status epilepticus induced by microinjection of kainic acid into the right amygdala (FIG. 15). […] The inhibition of status epilepticus was also dose dependent. […] Whereas a dose of 1 mg/kg of Tat-pTrkBY816 was ineffective, doses of 3 mg/kg and 10 mg/kg effected a striking inhibition such that status epilepticus was prevented in at least 70% of animals (FIG. 17, top). By contrast, kainic acid induced status epilepticus in all animals pretreated with the control scr-Tat-pTrkBY816 regardless of dose (FIG. 17, top).
(§1) Surgery and microinfusion studies provided in Examples 10-14 were performed as described here. Surgery and microinfusion of KA into right amygdala of adult mice was performed as previously described (Liu, G. et al., (2013) Neuron 79:31-38). Briefly, mice were anesthetized with pentobarbital (60 mg/kg, intraperitoneally [i.p.]) and placed in a stereotaxic frame. A guide cannula was stereotactically placed above the right amygdala (coordinates from bregma: AP=−1.2 mm; ML=3.0 mm). A bipolar electrode was placed in the left dorsal hippocampus (coordinates from bregma: AP=−2.0 mm; ML=−1.6 mm; DV=−1.5 mm). A ground electrode connected to a screw was placed in the skull above the cerebellum. After a postoperative recovery period of 7 days, the animal was gently restrained and an infusion cannula was inserted into the right amygdala through the guide cannula at the depth of 3.7 mm below dura. Either KA (0.3 μg in 0.5 μl PBS) or vehicle control (0.5 μl of PBS) was infused into the right basolateral amygdala at the rate of 0.11 μl per minute. The infusion cannula was left in the right amygdala for two additional minutes before being withdrawn from the guide cannula. Animals were housed individually for time locked electroencephalogram (EEG) telemetry and video monitoring with food and water ad libitum.
Emergence of SE was typically evident in EEG recordings 5-10 min after KA infusion. The behavioral seizures associated with electrographic seizures typically consisted of immobility, followed by facial automatisms, unilateral or bilateral forelimb clonus, and whole body clonus. Tonic-clonic seizures with loss of posture and jumping also occurred during the seizures (Mouri, G. et al., (2008) Brain Res 1213:140-151). For experiments in which p816 or Scr was administered prior to SE, mice were monitored for 45 min following KA infusion. […]

[3] = system: spontaneous recurrent seizures; test: SE-induced epilepsy: spontaneous recurrent seizures by video-EEG after 3 days of treatment following KA-SE; type: in vivo, mouse; settings: for animals with initial spontaneous seizure within 3 days following SE: 10 mg/kg i.v. x3, n=8; for number of spontaneous seizures: n=8, mean±SEM; for spontaneous recurrent seizures per animal (range): for pY816 the six animals with seizures
Description: as §1
Emergence of SE was typically evident in EEG recordings 5-10 min after KA infusion. The behavioral seizures associated with electrographic seizures typically consisted of immobility, followed by facial automatisms, unilateral or bilateral forelimb clonus, and whole body clonus. Tonic-clonic seizures with loss of posture and jumping also occurred during the seizures (Mouri, G. et al., (2008) Brain Res 1213:140-151). For experiments in which p816 or Scr was administered prior to SE, mice were monitored for 45 min following KA infusion. EEG patterns consistent with electrographic SE included any of the following: 1. discrete electrographic seizures; 2. waxing and waning epileptiform activity; 3. continuous, high amplitude, rapid spiking; 4. periodic epileptiform discharges on a relatively flat background as described by Treiman, D. M. et al., (1990) Epilepsy Res 5:49-60 and Walton, et. al., (1988) Exp Neurol 101:267-275. Behavioral patterns consistent with seizures included Classes 3-6 as described in the following section (Racine, R. J. (1972) Electroencephalogr Clin Neurophysiol 32:281-294; Borges, K. et al., (2003) Exp Neurol 182:21-34). The duration of behavioral and electrographic SE were determined by analyses of video and EEG data by trained observers blinded to treatment of mice. A similar method was used in experiments examining effects of mutations (trkB^PLC/PLC and PLCγ1^+/−) on SE induced by KA. For experiments in which p816 or Scr was administered following SE, diazepam (10 mg/kg, i.p.) was administered 40 minutes after the onset of SE followed by lorazepam (6 mg/kg, i.p.) one hour later to suppress SE and limit the mortality and morbidity of this model. Animals underwent continuous video-EEG monitoring 24 hr per day, 7 days per week for first two weeks post-SE (day 1-14). At the end of the second week post-SE, monitoring was discontinued and animals were returned to home cages. After a two-week interval, monitoring was resumed for an additional two weeks (day 29-42). Spontaneous recurrent seizures were identified by review of video-EEG files by independently by each of two trained readers blinded to treatment of mice. The consistency of identifying SRS between readers was ˜90%; in instances in which readers disagreed, the events were excluded from this study. SRS was defined electrographically as high frequency (>5 Hz), high amplitude (>2×baseline) rhythmic epileptiform activity with a minimal duration of 5 s and behaviorally with video-monitoring (see behavioral-seizure scoring). […]

YGRKKRRQRRR-LQNLAKASPVpYLDI (YGRKKRRQRRRLQNLAKASPV[pY]LDI) [pY816]
inhibition of BDNF-mediated activation of PLCγ1 (pPLCγ1 783 immunoreactivity) ([1]; 0.1 μM, 90 mins preincubation, BDNF 10 ng/ml 15 mins): did not inhibit
inhibition of BDNF-induced increase of pPLCγ1 783 ([1]; 1 μM, 90 mins preincubation, BDNF 10 ng/ml 15 mins): limited the BDNF-induced increase of pPLCγ1 783 in a concentration dependent manner
BDNF-mediated increase of p-PLC γ-1/PLC γ-1 ratio (quantified, FIG. 10) ([1]; 10 μM): inhibited the BDNF-mediated increase of p-PLC γ-1/PLC γ-1 ratio in a time dependent manner
inhibition of BDNF-mediated PLCγ1 activation ([1]; 10 μM, 60 min preincubation, compared to Scr): 68.2%
inhibition of BDNF mediated PLCγ1 activation ([1]; 10 μM, 90 min preincubation, compared to Scr): 79.3%
inhibition of BDNF-induced increase of pPLCγ1 783 ([1]; 10 μM, 90 mins preincubation, BDNF 10 ng/ml 15 mins): limited the BDNF-induced increase of pPLCγ1 783 in a concentration dependent manner
inhibition of BDNF-mediated PLCγ1 activation ([1]; 10 μM, 120 min preincubation, compared to Scr): 94.5%
inhibition of BDNF-mediated increased p-PLCγ1 783 ([1]; 10 μM): inhibited BDNF-mediated increased p-PLCγ1 783
inhibition of status epilepticus ([2]; 1 mg/kg i.v., six hours prior to KA): ineffective
animals in which status epilepticus was prevented ([2]; 3 mg/kg i.v., six hours prior to KA): at least 70%
earliest time at which inhibitory effects were evident following i.v. infusion ([2]; 10 mg/kg i.v.): 10 min
inhibition of status epilepticus remitted by ([2]; 10 mg/kg i.v.): ≤ 72 h
peak of inhibition of status epilepticus (pretreatment interval) ([2]; 10 mg/kg i.v.): 0.5 h
persistence of inhibition of status epilepticus ([2]; 10 mg/kg i.v.): 24 h
return of seizure inhibition to control levels by ([2]; 10 mg/kg i.v.): ≤ 72 h
inhibition of status epilepticus (time course) ([2]; 10 mg/kg i.v., 0.16-72 hr prior to KA): striking time dependent inhibition of status epilepticus
status epilepticus at 0.5 hour pretreatment ([2]; 10 mg/kg i.v., 0.5 hour prior to KA): eliminated altogether
maximal inhibition of convulsive motor and electrographic seizures ([2]; 10 mg/kg i.v., 6 hr prior to KA): 90%
latency to the onset of status epilepticus ([2]; 10 mg/kg i.v., compared to scrambled control peptide 10 mg/kg): prolonged
animals in which status epilepticus was prevented ([2]; 10 mg/kg i.v., six hours prior to KA): at least 70%
increase of latency to onset of status epilepticus ([2]; 10 mg/kg i.v., six hours prior to KA, compared to Scr-phospho-Tat-pTrkBY816): 3 fold
inhibition of convulsive motor and electrographic seizures persisting for 24 hr ([2]; 10 mg/kg i.v., up to 24 hr prior to KA): 80-90%
onset of inhibition of status epilepticus (pretreatment interval) ([2]; 10 mg/kg i.v., earliest time tested): 0.16 h
latency to onset of behavioral status epilepticus (dose response) ([2]; 1, 3, 10 mg/kg i.v., six hours prior to KA): increased the latency to onset of behavioral status epilepticus in a dose dependent fashion
latency to the onset of the first spontaneous seizure ([3]; 10 mg/kg i.v. immediately, 24 hr and 48 hr after SE, compared to control): delayed
animals with initial spontaneous seizure within 3 days following SE [3]: single
reduction in the number of spontaneous seizures compared to Scr ([3]; days 1-14 after SE): 86%
number of spontaneous seizures ([3]; days 1-14 after SE): 2.4±0.6
reduction in the number of spontaneous seizures compared to Scr ([3]; days 29-42 after SE): 90%
number of spontaneous seizures ([3]; days 29-42 after SE): 1.5±0.4
animals that exhibited no seizures ([3]; days 29-42 after SE, of eight treated): two
spontaneous recurrent seizures per animal (range) ([3]; days 29-42 after SE): 1-3 seizures

YGRKKRRQRRRLVApYQLKIAPNDLS (YGRKKRRQRRRLVA[pY]QLKIAPNDLS) [Scr, reference compound]
BDNF-mediated increase of p-PLC γ-1/PLC γ-1 ratio (quantified, FIG. 10) ([1]; 10 μM): ineffective
inhibition of BDNF-mediated increased p-PLCγ1 783 ([1]; 10 μM): no inhibition was evident
animals in which kainic acid induced status epilepticus ([2]; 10 mg/kg i.v. at different times prior to KA): 23 of 24
KA-induced seizures following i.v. infusion of peptide ([2]; i.v. prior to KA infusion into amygdala): prolonged convulsive motor and electrographic seizures
animals in which kainic acid induced status epilepticus ([2]; regardless of dose (1, 3, 10 mg/kg), six hours prior to KA): all animals
animals with initial spontaneous seizure within 3 days following SE [3]: 5 of 8
number of spontaneous seizures ([3]; days 1-14 after SE): 18.1±1.7
number of spontaneous seizures ([3]; days 29-42 after SE): 16.5±3.5
spontaneous recurrent seizures per animal (range) ([3]; days 29-42 after SE): 7-36 seizures

From patent US11129870B2, “Compositions and methods for uncoupling TrkB receptor from PLC gamma 1 for the treatment of epilepsy and anxiety-like disorder” (DUKE UNIVERSITY, priority 2010, dated 2021)
